How the values were obtained:
[1] = target: T1, IL-13Rα2 receptor on GBM cells (U-251 MG) (Homo sapiens, UniProt Q14627); experiment: Colorimetric MTS/PMS cell viability assay: neutralization of IL-13.E13K-PE38QQR cytotoxicity (competition for receptor); assay type: cell-based
T1 construct: endogenous in cells; host or cells: U-251 MG human glioblastoma cells (ATCC)
T1 sequence (Q14627 27-380): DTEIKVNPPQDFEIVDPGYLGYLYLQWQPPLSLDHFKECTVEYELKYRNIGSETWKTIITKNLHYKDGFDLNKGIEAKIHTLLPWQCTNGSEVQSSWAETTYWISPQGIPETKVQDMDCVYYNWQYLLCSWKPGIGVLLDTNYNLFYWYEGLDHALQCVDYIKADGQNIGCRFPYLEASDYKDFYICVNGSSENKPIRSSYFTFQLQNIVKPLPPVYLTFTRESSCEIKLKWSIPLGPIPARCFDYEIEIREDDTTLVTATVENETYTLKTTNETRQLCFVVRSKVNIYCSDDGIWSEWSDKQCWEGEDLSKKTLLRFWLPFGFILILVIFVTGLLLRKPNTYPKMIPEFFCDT
Protocol: 1× 10^3 U-251 MG cells were plated per well in quadruplicates for each concentration to be tested. IL-13.E13K-PE38QQR is an IL-13Rα2 based cytotoxin against GBM (24). After 24 hours incubation at […] for the cells to attach, a fixed concentration (i.e. 1 μM) of the IL13.E13K-D2-NLS and other purified proteins were added and incubated at 37° C. for 1 hr. After 1 hr. incubation, increasing concentrations of the IL-13.E13K-PE38QQR ranging from 0.1 to 100 ng/ml was added and the plate was incubated for 48 hr. Cells treated with cyclohexamide and just the cytotoxins were used as controls. After 48 hr., cell viability was measured using the MTS [3-(4,5-dimethylthiazol-2-yl)-543-carboxymethoxyphenyl)-2-(4-sulfophenyl)-2H-tetrazolium]/PMS [phenazine methosulfate] dye (Promega, Madison, Wis.) as per the manufacturer's instructions. The absorbance from the assay was measured at 490 nm using the plate reader Spectra max 340 PC (Molecular Devices, Sunnyvale, Calif.) and data was plotted as percentage of control versus concentration of the toxin used.
To this end, we carried out a cell-viability assay in which these recombinant proteins bound to the IL-13Rα2 receptor and protected against cytotoxic action of IL-13.E13K-PE38QQR. […]

[2] = system: IL-13Rα2 positive U-251 MG cells; experiment: Localization of biotin-conjugated proteins, tyramide signal amplification, confocal microscopy; assay type: cell-based, Human
Protocol: Biotin-XX microscale protein labeling kit (Invitrogen, Carlsbad, Calif.) was used to label the proteins as per the manufacturer's instructions. A different molar ratio of 12, 8 or 4 biotin-dye to the proteins was used. The biotin-labeled proteins were run on a gel and a western blot carried out using streptavidin-HR.P (Pierce, Rockford, Ill.) to detect for biotin-labeled proteins. The number of Biotin molecules attached to the proteins was determined by the Biofluoreporter assay kit (Invitrogen) as per the manufacturer's guidelines.
12,500 U-251 MG GBM cells were plated on coverslips per well in a 24-well plate. […] After the incubations, the cells were fixed with 4% paraformaldehyde (Ted Pella, Redding, Calif.) for 15 mins at 37° C. and washed with PBS 4× times. The cells were then permeabilized with 0.1% Triton-X-100/0.2% BSA-PBS for 10 min at RT. After permeabilization, the cells were washed 3 times with 1×PBS. After washings, Tyramide signal amplification kit (Invitrogen, Carlsbad, Calif.) using Alexa fluor 488 dyes and HR.P-streptavidin was carried out as per manufacturer's instructions. Topro-3 iodide (Invitrogen, Carlsbad, Calif.) was added at a concentration of 1:1000 dilution of the 1 mM stock to stain the cell nuclei. […]

[3] = system: G48a GBM cells, which over-express IL-13Rα2; experiment: Localization of biotin-conjugated proteins in G48a GBM cells; assay type: cell-based
Protocol: 12,500 U-251 MG GBM cells were plated on coverslips per well in a 24-well plate. […] After the incubations, the cells were fixed with 4% paraformaldehyde (Ted Pella, Redding, Calif.) for 15 mins at 37° C. and washed with PBS 4× times. The cells were then permeabilized with 0.1% Triton-X-100/0.2% BSA-PBS for 10 min at RT. After permeabilization, the cells were washed 3 times with 1×PBS. After washings, Tyramide signal amplification kit (Invitrogen, Carlsbad, Calif.) using Alexa fluor 488 dyes and HR.P-streptavidin was carried out as per manufacturer's instructions. Topro-3 iodide (Invitrogen, Carlsbad, Calif.) was added at a concentration of 1:1000 dilution of the 1 mM stock to stain the cell nuclei. After the tyramide staining, wells were washed and mounted with gel mount (Biomeda, Foster City, Calif.) and observed with LSM 510 Zeiss Confocal Microscope (Cellular Imaging Core, Comprehensive Cancer Center, Wake Forest University) and the images processed using Zeiss LSM Image Browser (version 4.2).
We repeated the above experiments in another GBM cell line, G48a (13), which over-expresses IL-13Rα2. We obtained similar results as with the U-251 MG cells.

[4] = system: LN229 cells, very low expressors of IL-13Rα2; experiment: Localization of biotin-labeled proteins in LN229 cells; assay type: cell-based, Human; settings: 24 hr.
Protocol: 12,500 U-251 MG GBM cells were plated on coverslips per well in a 24-well plate. After 24 hr., 1 μM/well of biotin-labeled proteins was added onto the U-251 MG cells for 15 min, 4, 8 and 24 hr. After the incubations, the cells were fixed with 4% paraformaldehyde (Ted Pella, Redding, Calif.) for 15 mins at 37° C. and washed with PBS 4× times. The cells were then permeabilized with 0.1% Triton-X-100/0.2% BSA-PBS for 10 min at RT. After permeabilization, the cells were washed 3 times with 1×PBS. After washings, Tyramide signal amplification kit (Invitrogen, Carlsbad, Calif.) using Alexa fluor 488 dyes and HR.P-streptavidin was carried out as per manufacturer's instructions. Topro-3 iodide (Invitrogen, Carlsbad, Calif.) was added at a concentration of 1:1000 dilution of the 1 mM stock to stain the cell nuclei. After the tyramide staining, wells were washed and mounted with gel mount (Biomeda, Foster City, Calif.) and observed with LSM 510 Zeiss Confocal Microscope (Cellular Imaging Core, Comprehensive Cancer Center, Wake Forest University) and the images processed using Zeiss LSM Image Browser (version 4.2).
We carried out identical experiments with biotin-labeled IL-13.E13K-D2-NLS in LN229 cells, very low expressors of IL-13Rα2.

IL-13.E13K
protection against cytotoxic action of IL-13.E13K-PE38QQR (competition for IL-13Rα2) ([1]; U-251 MG cells, 1 μM protein 1 hr before 0.1 to 100 ng/ml cytotoxin, 48 hr): blocked the action of the cytotoxin | binding of biotin-conjugated proteins to IL-13Rα2 on GBM cells ([1]; biotin-conjugated proteins): bind to the IL-13Rα2 | subcellular localization ([2]; biotin label, 8, 4 hr and 5 min, data not shown): demonstrate the results observed at 24 hr | subcellular localization ([2]; biotin label, 24 hr.): accumulated mainly in the peri-nuclear region | nuclear localization ([3]; any of the time-points): not found to have any nuclear localization | subcellular localization ([3]; biotin label, 4, 8 and 24 hr.): cytosolic/perinuclear localization | subcellular localization ([3]; biotin label, 5 min): cell membrane binding | cytosolic or perinuclear localization [4]: no cytosolic or perinuclear localization
